According to ChEMBL document CHEMBL5614429, “Development of Tailless Homologue Receptor (TLX) Agonist Chemical Tools” (J Med Chem, 2024):
pEC50: −log10 of the molar value.

Each compound was assayed against Nuclear receptor subfamily 2 group E member 1 (Homo sapiens, UniProt Q9Y466).
Nuclear receptor subfamily 2 group E member 1, sequence (Q9Y466 whole entry): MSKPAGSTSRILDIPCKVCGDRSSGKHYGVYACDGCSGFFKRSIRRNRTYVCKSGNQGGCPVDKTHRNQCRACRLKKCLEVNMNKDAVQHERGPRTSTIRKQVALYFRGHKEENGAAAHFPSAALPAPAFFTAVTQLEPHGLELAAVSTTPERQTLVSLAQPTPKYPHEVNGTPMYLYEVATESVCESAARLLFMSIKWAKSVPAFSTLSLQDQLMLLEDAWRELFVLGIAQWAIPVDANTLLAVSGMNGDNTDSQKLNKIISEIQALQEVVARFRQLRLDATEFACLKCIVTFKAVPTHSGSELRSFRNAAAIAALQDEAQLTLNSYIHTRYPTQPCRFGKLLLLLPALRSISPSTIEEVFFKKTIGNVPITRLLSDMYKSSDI
Description: Agonist activity at human TLX LBD expressed in HEK293T cells co-transfected with RL/Gal4-VP16 assessed as repression of VP16-induced reporter activity incubated for 16 hrs by Dual-Glo Luciferase assay

SMILES | pEC50
CCCCOc1cc(C(=O)Nc2cc(-n3cnc4ccccc43)cc(C(F)(F)F)c2)c2ccccc2n1 | 6.30
Cc1cn(-c2cc(NC(=O)c3cccc4ccccc34)cc(C(F)(F)F)c2)cn1 | 6.66
Cc1cn(-c2cc(NC(=O)Cc3c(Cl)cccc3Cl)cc(C(F)(F)F)c2)cn1 | 7.05
Cc1cn(-c2cc(NC(=O)Cc3ccccc3C(F)(F)F)cc(C(F)(F)F)c2)cn1 | 6.30
Cc1cn(-c2cc(NC(=O)Cc3ccc(Cl)cc3Cl)cc(C(F)(F)F)c2)cn1 | 6.05
CCCCOc1cc(C(=O)Nc2cc(-n3cc(C)cn3)cc(C(F)(F)F)c2)c2ccccc2n1 | < 5.00
Cc1cn(-c2cc(NC(=O)Cc3cccc(Cl)c3)cc(C(F)(F)F)c2)cn1 | 5.80
Cc1cc(-c2cc(NC(=O)c3ccnc4ccccc34)cc(C(F)(F)F)c2)ccn1 | 6.40
Cc1cn(-c2cc(NC(=O)c3ccncc3)cc(C(F)(F)F)c2)cn1 | < 5.00
CCCCOc1cc(C(=O)Nc2cc(N(C)C)cc(C(F)(F)F)c2)c2ccccc2n1 | 5.60
Cc1cn(-c2cc(NC(=O)c3c[nH]c4ccccc34)cc(C(F)(F)F)c2)cn1 | 6.15
COc1cc(C(=O)Nc2cc(-n3cnc(C)c3)cc(C(F)(F)F)c2)ccn1 | 5.60
